The supplement of paper PMC10307832

Columns and labels:
Assay in all cases: relative viability (nuclei count vs DMSO), 5 days (fraction); higher = more cells survive
KIN001-266 = compound: CCN1CCC(CC1)N2C=C(N=N2)CNC3=CC4=C(C(=CN=C4C(=C3)Cl)C#N)NC5=CC(=C(C=C5)F)Cl [KIN001-266]
How it was run: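 MetaXpress counted nuclei in 4× images of lung cancer cell lines that had been fixed, permeabilised and Hoechst-stained in one step. Before that, cells in 1536-well plates were kept overnight at 37 °C, pinned with five √10-spaced library-drug doses on vehicle-anchored plates, and cultured 5 days without medium change. Viability takes treated-well nuclei over vehicle-well nuclei and uses the median across plates. Plates were accepted only at control CV below 25% and at least one doubling.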

KIN001-266 + Trametinib = compound: CCN1CCC(CC1)N2C=C(N=N2)CNC3=CC4=C(C(=CN=C4C(=C3)Cl)C#N)NC5=CC(=C(C=C5)F)Cl [KIN001-266] + CC(=O)Nc1cccc(-n2c(=O)n(C3CC3)c(=O)c3c(Nc4ccc(I)cc4F)n(C)c(=O)c(C)c32)c1 [Trametinib] (partner 0.02 µM)
How it was run: (§1)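 For relative viability, nuclei counts in treated wells were divided by those in vehicle wells. Lung cancer cell lines had been pin-tool dosed in 1536-well plates the day after seeding and cultured for 5 days, then fixed and stained in one step (final 0.05% Triton X-100, 1% formaldehyde, 1 ug/ml Hoechst) and imaged at 4×. Doses were one drug alone or a fixed anchor-drug dose plus five library-drug doses (not always all listed) in √10 steps, and values are duplicate-plate medians.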

KIN001-266 + OSI-027 = compound: CCN1CCC(CC1)N2C=C(N=N2)CNC3=CC4=C(C(=CN=C4C(=C3)Cl)C#N)NC5=CC(=C(C=C5)F)Cl [KIN001-266] + COc1cccc2cc(-c3nc([C@H]4CC[C@H](C(=O)O)CC4)n4ncnc(N)c34)[nH]c12 [OSI-027] (partner 0.5 µM)
How it was run: as §1

KIN001-266 + Phenformin = compound: CCN1CCC(CC1)N2C=C(N=N2)CNC3=CC4=C(C(=CN=C4C(=C3)Cl)C#N)NC5=CC(=C(C=C5)F)Cl [KIN001-266] + N=C(N)NC(=N)NCCc1ccccc1 [Phenformin] (partner 250 µM)
How it was run: as §1

Row | Cell Line | relative viability (KIN001-266; 0.08 µM) | relative viability (KIN001-266; 0.253 µM) | relative viability (KIN001-266; 0.8 µM) | relative viability (KIN001-266; 2.53 µM) | relative viability (KIN001-266; 8 µM) | relative viability (KIN001-266 + Trametinib; first compound 0.08 µM) | relative viability (KIN001-266 + Trametinib; first compound 0.253 µM) | relative viability (KIN001-266 + Trametinib; first compound 0.8 µM) | relative viability (KIN001-266 + Trametinib; first compound 2.53 µM) | relative viability (KIN001-266 + Trametinib; first compound 8 µM) | relative viability (KIN001-266 + OSI-027; first compound 0.08 µM) | relative viability (KIN001-266 + OSI-027; first compound 0.253 µM) | relative viability (KIN001-266 + OSI-027; first compound 0.8 µM) | relative viability (KIN001-266 + OSI-027; first compound 2.53 µM) | relative viability (KIN001-266 + OSI-027; first compound 8 µM) | relative viability (KIN001-266 + Phenformin; first compound 0.08 µM) | relative viability (KIN001-266 + Phenformin; first compound 0.253 µM) | relative viability (KIN001-266 + Phenformin; first compound 0.8 µM) | relative viability (KIN001-266 + Phenformin; first compound 2.53 µM) | relative viability (KIN001-266 + Phenformin; first compound 8 µM)
1 | NCI-H1651 | 0.955 | 1.01 | 0.957 | 1.01 | 0.96 | 0.847 | 0.833 | 0.772 | 0.771 | 0.854 | 0.709 | 0.787 | 0.743 | 0.753 | 0.636 | 0.355 | 0.383 | 0.316 | 0.508 | 0.325
2 | NCI-H1666 | 1.07 | 1 | 0.896 | 0.99 | 0.959 | 0.909 | 0.897 | 0.713 | 0.855 | 0.761 | 0.838 | 0.879 | 0.88 | 0.849 | 0.802 | 0.547 | 0.627 | 0.573 | 0.581 | 0.574
3 | NCI-H1734 | 1.01 | 1.01 | 1.08 | 0.858 | 0.855 | 0.671 | 0.715 | 0.606 | 0.672 | 0.608 | 0.621 | 0.583 | 0.578 | 0.549 | 0.522 | 0.416 | 0.387 | 0.405 | 0.357 | 0.321
4 | NCI-H1755 | 0.968 | 0.994 | 0.995 | 0.975 | 0.96 | 0.727 | 0.802 | 0.775 | 0.792 | 0.684 | 0.74 | 0.739 | 0.679 | 0.723 | 0.651 | 0.643 | 0.62 | 0.625 | 0.621 | 0.549
5 | NCI-H1792 | 0.987 | 0.919 | 0.856 | 0.908 | 1.01 | 0.372 | 0.341 | 0.43 | 0.416 | 0.476 | 0.772 | 0.711 | 0.729 | 0.732 | 0.691 | 0.26 | 0.223 | 0.17 | 0.123 | 0.265
6 | NCI-H1793 | 1.04 | 0.865 | 0.617 | 0.787 | 0.606 | 0.436 | 0.452 | – | 0.39 | 0.299 | 0.332 | 0.254 | 0.231 | 0.258 | 0.204 | 0.418 | 0.324 | 0.25 | 0.352 | 0.251
7 | NCI-H1915 | 1.02 | 0.971 | 0.982 | 1.07 | 0.935 | 0.312 | 0.302 | 0.298 | 0.293 | 0.223 | 0.703 | 0.635 | 0.629 | 0.661 | 0.49 | 0.365 | 0.379 | 0.354 | 0.379 | 0.36
8 | NCI-H1944 | 1.07 | 0.972 | 0.919 | 1.02 | 0.974 | 0.419 | 0.401 | 0.324 | 0.393 | 0.41 | 0.46 | 0.473 | 0.373 | 0.44 | 0.343 | 0.208 | 0.194 | 0.186 | 0.199 | 0.164
9 | NCI-H1975 | 0.989 | 0.97 | 0.966 | 1.03 | 0.965 | 0.435 | 0.343 | 0.346 | 0.461 | 0.325 | 0.692 | 0.776 | 0.769 | 0.691 | 0.555 | 0.416 | 0.402 | 0.431 | 0.422 | 0.36
10 | NCI-H1993 | 0.971 | 0.916 | 0.815 | 0.81 | 0.724 | 0.559 | 0.52 | 0.478 | 0.475 | 0.522 | 0.562 | 0.537 | 0.607 | 0.582 | 0.63 | 0.505 | 0.493 | 0.506 | 0.49 | 0.575
11 | NCI-H2009 | 0.988 | 1.06 | 1 | 0.982 | 0.856 | 0.296 | 0.313 | 0.273 | 0.23 | 0.253 | 0.711 | 0.686 | 0.744 | 0.493 | 0.41 | 0.455 | 0.432 | 0.441 | 0.319 | 0.262
12 | NCI-H2023 | 0.915 | 0.997 | 1.15 | 0.926 | 0.94 | 0.51 | 0.578 | 0.533 | 0.447 | 0.456 | 0.449 | 0.437 | 0.379 | 0.368 | 0.241 | 0.378 | 0.391 | 0.401 | 0.304 | 0.28
13 | NCI-H2085 | 1 | 1.04 | 0.865 | 0.973 | 0.777 | 0.569 | 0.457 | 0.567 | 0.558 | 0.541 | 0.808 | 0.835 | 0.582 | 0.759 | 0.416 | 0.855 | 0.741 | 0.663 | 0.669 | 0.632
14 | NCI-H2087 | 0.957 | 1.03 | 0.94 | 1.06 | 0.786 | 0.254 | 0.276 | 0.16 | 0.175 | 0.175 | 0.823 | 0.65 | 0.599 | 0.458 | 0.486 | 0.439 | 0.467 | 0.38 | 0.352 | 0.234
15 | NCI-H2126 | 1.01 | 1.03 | 0.978 | 0.925 | 0.975 | 0.583 | 0.554 | 0.621 | 0.568 | 0.518 | 0.712 | 0.754 | 0.696 | 0.635 | 0.618 | 0.535 | 0.519 | 0.546 | 0.555 | 0.5
16 | NCI-H2170 | 1 | 0.995 | 0.979 | 0.935 | 1.01 | 0.969 | 0.872 | 0.96 | 0.934 | 0.822 | 0.734 | 0.769 | 0.708 | 0.639 | 0.719 | 0.38 | 0.383 | 0.377 | 0.358 | 0.334
